Measured values published in ChEMBL document CHEMBL1201862, “PubChem BioAssay data set” (2004).
Calls of active or inactive are those of the source.

How the values were obtained:
[1] = viability of uninfected HEp-2 cells – cell-based, HTS, cytotoxicity control for RSV inhibitor project, dose response (AID 2410); assay type: functional; conditions: human respiratory syncytial virus
[2] = target: T1, Voltage-gated N-type calcium channel alpha-1B subunit/Amyloid beta A4 precursor protein-binding family A member 1 (Homo sapiens, UniProt Q00975+Q02410); test: disruptors of Mint-PDZ/N-type channel peptide interaction – biochemical, HTRF, SAR follow-up (AID 2489); assay type: functional
[3] = target: DNA (cytosine-5)-methyltransferase 1 (Homo sapiens, UniProt P26358); test: inhibition of DNA methylation by DNMT1 – biochemical, fluorescent molecular beacon, confirmation (AID 602386); assay type: functional
[4] = target: T1, Voltage-gated N-type calcium channel alpha-1B subunit/Amyloid beta A4 precursor protein-binding family A member 1; test: disruptors of Mint-PDZ/N-type channel peptide interaction – biochemical, HTRF, set 2, SAR follow-up (AID 434980); assay type: functional
SUMO E1/E2 = SUMO E1/E2 (Homo sapiens, UniProt P63279+Q9UBE0+Q9UBT2); test: SAR analysis of SUMOylation using HTRF in an in-Vitro dose response assay. [Related pubchem assays (depositor defined):AID2006, AID2011, AID2018, AID2069, AID2658]; assay type: functional
[5] = target: T2, Induced myeloid leukemia cell differentiation protein Mcl-1 (Homo sapiens, UniProt Q07820); assay type: functional
Bcl-2-like protein 10 [6] = target: T3, Bcl-2-like protein 10 (Homo sapiens, UniProt Q9HD36); test: Bcl-B/TR3 peptide binding disruption – biochemical, fluorescence polarization, FITC-TR3 peptide, selectivity assay for Bfl-1 inhibitor project, primary screen (AID 748);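 also: fluorescence polarization from a fluorescein-labelled TR3 peptide binding purified Bcl-B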
T3 sequence (Q9HD36 whole entry): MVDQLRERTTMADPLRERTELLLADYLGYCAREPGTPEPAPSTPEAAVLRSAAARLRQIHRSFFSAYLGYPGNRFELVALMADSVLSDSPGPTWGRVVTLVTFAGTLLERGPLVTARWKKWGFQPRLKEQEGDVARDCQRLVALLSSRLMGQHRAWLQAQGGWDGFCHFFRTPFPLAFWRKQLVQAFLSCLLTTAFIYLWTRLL

Protein Tat = target: T4, Protein Tat (Human immunodeficiency virus type 1 group M subtype B (isolate HXB2)(HIV-1), UniProt P04608); assay type: functional;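 also: tat binding to TAR RNA read out by fluorescence polarization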
T4 sequence (P04608 whole entry): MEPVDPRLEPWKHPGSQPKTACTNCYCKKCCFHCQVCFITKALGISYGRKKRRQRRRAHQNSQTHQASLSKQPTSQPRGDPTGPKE

[7] = viability loss in THP-1 monocytes – THP-1 cells, cytotoxicity control for Vif-APOBEC3G degradation inhibitor project, dose response (AID 1117359); assay type: functional; conditions: THP-1
Genome polyprotein [8] = target: Genome polyprotein (Hepatitis C virus, UniProt Q2Q167); test: disruption of hepatitis C core self-association – biochemical, TR-FRET, dose response (AID 2159); parameters: species or system Hepacivirus hominis;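 also: blocks dimerization of HCV core protein measured by TR-FRET between tagged core106 pairs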
SUMO-activating enzyme [9] = target: T5, SUMO-activating enzyme (Homo sapiens, UniProt Q9UBT2); test: blockers of UBC9-mediated SUMO conjugation – biochemical, AlphaScreen, SUMOylation inhibitor project, confirmation (AID 2018); assay type: functional
[10] = target: Protein-tyrosine kinase 2-beta (Homo sapiens, UniProt Q14289);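 also: potency of inhibitors of PYK2 kinase phosphorylation of poly-GT substrate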
SUMO-activating enzyme [11] = target: T5, SUMO-activating enzyme; test: blockers of SAE1/SAE2–UBC9 SUMO transfer – biochemical, HTRF, uHTS, primary screen (AID 2006); assay type: protein-complex assay
[12] = target: Epstein-Barr nuclear antigen 1 (Epstein-Barr virus (strain B95-8) (HHV-4) (Human herpesvirus 4), UniProt P03211); test: inhibition of EBV nuclear antigen 1 DNA binding – biochemical, fluorescence polarization, 1536-well, dose response (AID 2381); parameters: species or system human gammaherpesvirus 4;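 also: fluorescence polarization of a Cy5 DNA probe bound by EBNA-1 protein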
[13] = target: Lytic switch protein BZLF1 (Epstein-Barr virus (strain B95-8) (HHV-4) (Human herpesvirus 4), UniProt P03206); test: inhibition of BZLF1 ZTA DNA binding – biochemical, fluorescence polarization, Epstein-Barr virus, 1536-well, counter-screen for EBNA-1 inhibitor project, dose response (AID 2377); parameters: species or system human gammaherpesvirus 4;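 also: fluorescence polarization of Cy5-labelled ZRE DNA probe bound by purified Zta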
Streptococcus = test: GAS bacterial viability reduction – luminescence, BacTiter-Glo, strain UMAA2166, counter-screen for streptokinase expression inhibitor project, dose response (AID 2477); assay type: functional, organism-based
Streptokinase A = target: T6, Streptokinase A (Streptococcus pyogenes serotype M1, UniProt P10520); test: Absorbance Microorganism-Based Dose Response Follow up to Identify Inhibitors of Streptokinase Expression. [Related pubchem assays: 1677 (Project Summary), 1915, 1914, 1902 (Retest at Dose), 1900 (Counter Screen), 1662 (Primary HTS)]; assay type: functional, Streptococcus pyogenes M1 GAS
T6 sequence (P10520 whole entry): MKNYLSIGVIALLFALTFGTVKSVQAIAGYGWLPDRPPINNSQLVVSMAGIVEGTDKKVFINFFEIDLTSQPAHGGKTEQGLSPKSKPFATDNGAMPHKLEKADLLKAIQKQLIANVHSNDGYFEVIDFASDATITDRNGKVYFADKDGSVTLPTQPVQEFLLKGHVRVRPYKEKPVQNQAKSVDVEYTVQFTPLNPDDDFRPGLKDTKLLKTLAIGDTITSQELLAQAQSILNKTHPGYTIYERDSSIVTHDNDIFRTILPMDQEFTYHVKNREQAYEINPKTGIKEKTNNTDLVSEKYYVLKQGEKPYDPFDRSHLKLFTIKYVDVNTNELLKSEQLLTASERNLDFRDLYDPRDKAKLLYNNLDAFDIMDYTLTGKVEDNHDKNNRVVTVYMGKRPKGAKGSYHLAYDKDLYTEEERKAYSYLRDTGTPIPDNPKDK

[14] = Luminescence Cell-Based Dose Confirmation HTS to Identify Inhibitors of Polyadenylation.; assay type: functional
Bcl-2-like protein 10 [15] = target: T3, Bcl-2-like protein 10; test: Concentration-response of Bcl-B inhibitors by biochemical FP with TR3 (AID 1243); assay type: functional
Caspase-6 = target: T7, Caspase-6 (Homo sapiens, UniProt P55212); test: inhibition of CASP6 peptide cleavage – biochemical, VEID-R110 fluorescence, cherry-pick, dose response (AID 720632)
T7 sequence (P55212 whole entry): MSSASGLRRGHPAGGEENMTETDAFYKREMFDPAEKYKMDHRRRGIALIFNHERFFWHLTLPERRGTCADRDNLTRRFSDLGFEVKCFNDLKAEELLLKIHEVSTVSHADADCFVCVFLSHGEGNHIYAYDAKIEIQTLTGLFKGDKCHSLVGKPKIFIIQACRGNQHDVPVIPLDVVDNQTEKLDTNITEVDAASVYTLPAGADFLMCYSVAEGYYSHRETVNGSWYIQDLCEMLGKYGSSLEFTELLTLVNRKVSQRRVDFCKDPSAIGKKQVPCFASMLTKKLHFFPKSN

Bcl-2-like protein 1 = Bcl-2-like protein 1 (Homo sapiens, UniProt Q07817); test: blockers of BCLXL peptide binding – biochemical, fluorescence polarization, 1536-well, selectivity assay for MCL1 inhibitor project, dose response (AID 2218)
Genome polyprotein [16] = target: Genome polyprotein (dengue virus type 2, UniProt P29990); test: flavivirus cap methylation enzyme inhibition – biochemical, confirmation dose response, primary screen (AID 588689); assay type: functional
[17] = target: T2, Induced myeloid leukemia cell differentiation protein Mcl-1; test: blockers of MCL1 binding to BIM peptide – biochemical, fluorescence polarization, BIM-BH3 peptide, 1536-well, dose response (AID 2217)
Prothrombin = Prothrombin (Bos taurus, UniProt P00735); test: thrombin protease inhibitors – biochemical, fluorescence polarization, uHTS hits, dose response (AID 602369); assay type: functional
[18] = target: 72 kDa type IV collagenase (Homo sapiens, UniProt P08253); test: Dose Response validation of uHTS RPN11 inhibitor hits using a MMP-2 Fluorescence assay.; assay type: functional
[19] = mitochondrial function rescue without frataxin homolog – Friedreich's ataxia, plus single-dose screen, dose response (AID 1465); assay type: functional;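 also: yeast depleted of Yfh1p frataxin homolog grown on glycerol needing respiration; WST-1 tetrazolium dye reduction as measure of cellular dehydrogenase metabolic activity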
[20] = target: FAD-linked sulfhydryl oxidase ALR (Homo sapiens, UniProt P55789); test: ALR-catalysed DTT oxidation blockers – biochemical, H2O2 detection, luminescence, cherry-pick, dose response (AID 493248)
Aminopeptidase N = target: T8, Aminopeptidase N (Plasmodium falciparum FcB1/Columbia, UniProt O96935); test: malaria alanyl aminopeptidase activity blockers – biochemical, fluorogenic H-Leu-NHMec substrate, 1536-well (AID 1445); parameters: species or system Plasmodium falciparum 3D7, 3D7
T8 sequence (O96935 whole entry): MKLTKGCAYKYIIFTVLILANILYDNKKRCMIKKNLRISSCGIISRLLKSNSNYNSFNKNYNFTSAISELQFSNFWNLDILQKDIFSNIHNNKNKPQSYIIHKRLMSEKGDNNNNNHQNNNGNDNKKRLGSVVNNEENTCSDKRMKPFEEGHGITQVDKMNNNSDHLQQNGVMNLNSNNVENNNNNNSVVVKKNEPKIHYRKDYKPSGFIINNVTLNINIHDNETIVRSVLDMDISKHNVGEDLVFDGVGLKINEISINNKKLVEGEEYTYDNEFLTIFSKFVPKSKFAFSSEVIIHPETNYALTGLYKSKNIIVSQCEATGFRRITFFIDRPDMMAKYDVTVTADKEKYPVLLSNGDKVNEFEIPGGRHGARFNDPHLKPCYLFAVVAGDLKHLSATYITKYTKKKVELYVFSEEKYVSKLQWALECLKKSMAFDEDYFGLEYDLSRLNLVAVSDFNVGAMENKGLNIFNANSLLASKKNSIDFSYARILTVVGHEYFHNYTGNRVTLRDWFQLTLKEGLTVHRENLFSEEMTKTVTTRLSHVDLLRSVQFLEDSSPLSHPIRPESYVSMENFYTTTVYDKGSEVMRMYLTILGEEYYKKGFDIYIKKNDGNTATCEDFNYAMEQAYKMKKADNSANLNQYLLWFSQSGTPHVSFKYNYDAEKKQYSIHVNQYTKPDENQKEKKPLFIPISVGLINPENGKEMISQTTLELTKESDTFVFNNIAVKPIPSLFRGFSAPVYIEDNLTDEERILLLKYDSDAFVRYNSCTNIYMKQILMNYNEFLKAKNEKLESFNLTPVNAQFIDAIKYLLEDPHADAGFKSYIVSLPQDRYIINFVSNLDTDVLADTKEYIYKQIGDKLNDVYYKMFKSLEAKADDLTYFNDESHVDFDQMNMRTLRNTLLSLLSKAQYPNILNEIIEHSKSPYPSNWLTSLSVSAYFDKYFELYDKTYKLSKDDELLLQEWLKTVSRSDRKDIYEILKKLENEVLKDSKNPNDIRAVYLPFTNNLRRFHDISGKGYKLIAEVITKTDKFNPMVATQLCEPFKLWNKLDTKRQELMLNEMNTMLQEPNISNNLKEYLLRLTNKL

[21] = target: 26S proteasome non-ATPase regulatory subunit 14 (Homo sapiens, UniProt O00487); test: inhibition of proteasome subunit RPN11 – biochemical, fluorescence polarization, uHTS hits, confirmation (AID 602368); assay type: functional
Mucolipin-3 = Mucolipin-3 (Homo sapiens, UniProt Q8TDD5); test: Dose response cell-based high-throughput screening assay for agonists of the transient receptor potential channel ML3 (TRPML3). [Related pubchem assays: 1526, 1424, 1448 ]; assay type: functional
Ion channel NompC = Ion channel NompC (Danio rerio, UniProt Q7T1G6); test: Fluorescence counterscreen assay for TRPML3 agonists: dose response cell-based high-throughput screening assay to identify agonists of the transient receptor potential channel N1 (TRPN1). [Related pubchem assays: 1526, 1424, 1448 ]; assay type: functional

T5 sequence (Q9UBE0 whole entry): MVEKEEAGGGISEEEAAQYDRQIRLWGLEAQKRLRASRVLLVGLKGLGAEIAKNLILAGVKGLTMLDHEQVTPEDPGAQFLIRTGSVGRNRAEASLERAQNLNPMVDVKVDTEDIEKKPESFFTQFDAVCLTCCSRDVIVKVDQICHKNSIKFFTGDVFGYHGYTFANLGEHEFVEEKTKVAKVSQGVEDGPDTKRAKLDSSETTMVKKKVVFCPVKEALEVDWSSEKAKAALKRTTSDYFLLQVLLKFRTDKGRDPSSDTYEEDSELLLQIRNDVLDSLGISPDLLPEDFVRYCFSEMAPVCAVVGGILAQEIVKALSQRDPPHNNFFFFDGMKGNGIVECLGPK
T5 sequence (Q9UBT2 whole entry): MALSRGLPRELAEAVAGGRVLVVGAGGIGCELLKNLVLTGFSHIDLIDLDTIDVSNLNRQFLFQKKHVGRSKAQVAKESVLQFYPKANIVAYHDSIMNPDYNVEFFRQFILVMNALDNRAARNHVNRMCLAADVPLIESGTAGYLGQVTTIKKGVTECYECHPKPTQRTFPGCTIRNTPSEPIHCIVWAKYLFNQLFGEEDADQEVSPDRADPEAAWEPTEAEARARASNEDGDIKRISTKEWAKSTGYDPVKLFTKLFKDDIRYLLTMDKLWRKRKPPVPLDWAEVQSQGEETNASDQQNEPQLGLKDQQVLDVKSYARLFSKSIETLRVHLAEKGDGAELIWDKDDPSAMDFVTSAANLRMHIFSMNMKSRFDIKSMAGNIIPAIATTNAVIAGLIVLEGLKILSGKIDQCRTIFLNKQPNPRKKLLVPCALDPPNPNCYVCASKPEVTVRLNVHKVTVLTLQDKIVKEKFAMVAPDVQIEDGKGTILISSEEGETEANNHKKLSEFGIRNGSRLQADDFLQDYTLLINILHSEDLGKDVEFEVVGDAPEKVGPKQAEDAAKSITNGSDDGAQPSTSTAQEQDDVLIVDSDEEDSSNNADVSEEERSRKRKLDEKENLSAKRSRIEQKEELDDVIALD
T1 sequence (Q00975 whole entry): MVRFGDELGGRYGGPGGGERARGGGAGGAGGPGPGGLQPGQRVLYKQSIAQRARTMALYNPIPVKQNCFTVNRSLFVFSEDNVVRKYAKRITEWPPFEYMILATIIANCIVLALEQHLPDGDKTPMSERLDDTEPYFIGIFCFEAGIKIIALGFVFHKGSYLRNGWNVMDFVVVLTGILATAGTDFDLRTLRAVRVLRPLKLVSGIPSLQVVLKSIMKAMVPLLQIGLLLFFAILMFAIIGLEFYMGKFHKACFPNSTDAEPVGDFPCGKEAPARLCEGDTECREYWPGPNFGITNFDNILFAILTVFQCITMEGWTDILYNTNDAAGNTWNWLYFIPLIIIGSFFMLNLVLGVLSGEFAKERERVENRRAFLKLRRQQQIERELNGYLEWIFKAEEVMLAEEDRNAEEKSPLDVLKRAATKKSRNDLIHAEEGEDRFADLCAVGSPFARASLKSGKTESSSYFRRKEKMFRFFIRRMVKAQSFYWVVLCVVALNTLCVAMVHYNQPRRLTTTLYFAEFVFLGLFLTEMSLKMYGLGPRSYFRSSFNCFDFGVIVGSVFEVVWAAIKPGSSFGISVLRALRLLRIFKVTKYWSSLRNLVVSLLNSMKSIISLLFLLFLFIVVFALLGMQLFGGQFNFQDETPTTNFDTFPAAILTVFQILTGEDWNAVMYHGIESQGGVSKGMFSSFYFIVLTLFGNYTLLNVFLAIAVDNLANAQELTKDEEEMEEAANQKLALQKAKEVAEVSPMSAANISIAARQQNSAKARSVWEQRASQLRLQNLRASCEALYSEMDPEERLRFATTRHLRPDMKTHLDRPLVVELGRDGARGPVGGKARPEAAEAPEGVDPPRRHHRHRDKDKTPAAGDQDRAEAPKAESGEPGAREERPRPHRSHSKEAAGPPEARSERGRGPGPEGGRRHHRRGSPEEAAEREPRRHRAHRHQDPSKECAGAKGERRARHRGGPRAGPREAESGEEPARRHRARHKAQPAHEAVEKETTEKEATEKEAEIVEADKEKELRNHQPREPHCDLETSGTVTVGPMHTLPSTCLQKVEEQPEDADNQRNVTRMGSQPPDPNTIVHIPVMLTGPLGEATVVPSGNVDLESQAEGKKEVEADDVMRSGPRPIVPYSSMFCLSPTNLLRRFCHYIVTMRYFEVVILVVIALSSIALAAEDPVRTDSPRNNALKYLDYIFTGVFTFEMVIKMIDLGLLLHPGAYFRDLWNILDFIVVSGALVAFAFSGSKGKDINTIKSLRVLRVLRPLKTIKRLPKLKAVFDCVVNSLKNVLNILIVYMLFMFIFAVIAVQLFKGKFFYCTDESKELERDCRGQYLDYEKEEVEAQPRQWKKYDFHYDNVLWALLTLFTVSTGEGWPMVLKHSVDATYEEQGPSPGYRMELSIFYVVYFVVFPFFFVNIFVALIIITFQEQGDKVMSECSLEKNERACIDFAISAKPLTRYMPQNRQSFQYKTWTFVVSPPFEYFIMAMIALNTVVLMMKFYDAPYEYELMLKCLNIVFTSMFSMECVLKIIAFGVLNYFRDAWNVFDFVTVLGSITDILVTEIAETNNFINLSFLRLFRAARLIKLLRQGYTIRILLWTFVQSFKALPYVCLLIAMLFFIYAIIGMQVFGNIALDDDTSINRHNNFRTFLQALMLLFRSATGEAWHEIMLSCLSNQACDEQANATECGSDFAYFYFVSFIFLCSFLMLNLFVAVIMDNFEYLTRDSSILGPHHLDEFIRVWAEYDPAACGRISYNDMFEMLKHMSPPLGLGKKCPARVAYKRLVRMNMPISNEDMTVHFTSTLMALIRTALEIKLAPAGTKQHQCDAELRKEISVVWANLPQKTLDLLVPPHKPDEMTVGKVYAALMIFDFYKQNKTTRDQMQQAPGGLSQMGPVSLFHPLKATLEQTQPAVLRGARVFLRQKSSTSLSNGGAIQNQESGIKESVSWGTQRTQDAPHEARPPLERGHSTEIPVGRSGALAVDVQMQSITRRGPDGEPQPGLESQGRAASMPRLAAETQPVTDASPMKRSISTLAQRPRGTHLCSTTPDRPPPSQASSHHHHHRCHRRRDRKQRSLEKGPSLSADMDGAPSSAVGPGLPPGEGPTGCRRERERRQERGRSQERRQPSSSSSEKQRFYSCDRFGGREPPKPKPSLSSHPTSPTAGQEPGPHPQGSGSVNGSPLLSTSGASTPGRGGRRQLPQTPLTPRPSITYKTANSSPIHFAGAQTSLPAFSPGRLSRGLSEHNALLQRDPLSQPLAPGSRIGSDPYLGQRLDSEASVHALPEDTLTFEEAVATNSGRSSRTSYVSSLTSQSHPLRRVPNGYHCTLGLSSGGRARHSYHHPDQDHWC
T1 sequence (Q02410 whole entry): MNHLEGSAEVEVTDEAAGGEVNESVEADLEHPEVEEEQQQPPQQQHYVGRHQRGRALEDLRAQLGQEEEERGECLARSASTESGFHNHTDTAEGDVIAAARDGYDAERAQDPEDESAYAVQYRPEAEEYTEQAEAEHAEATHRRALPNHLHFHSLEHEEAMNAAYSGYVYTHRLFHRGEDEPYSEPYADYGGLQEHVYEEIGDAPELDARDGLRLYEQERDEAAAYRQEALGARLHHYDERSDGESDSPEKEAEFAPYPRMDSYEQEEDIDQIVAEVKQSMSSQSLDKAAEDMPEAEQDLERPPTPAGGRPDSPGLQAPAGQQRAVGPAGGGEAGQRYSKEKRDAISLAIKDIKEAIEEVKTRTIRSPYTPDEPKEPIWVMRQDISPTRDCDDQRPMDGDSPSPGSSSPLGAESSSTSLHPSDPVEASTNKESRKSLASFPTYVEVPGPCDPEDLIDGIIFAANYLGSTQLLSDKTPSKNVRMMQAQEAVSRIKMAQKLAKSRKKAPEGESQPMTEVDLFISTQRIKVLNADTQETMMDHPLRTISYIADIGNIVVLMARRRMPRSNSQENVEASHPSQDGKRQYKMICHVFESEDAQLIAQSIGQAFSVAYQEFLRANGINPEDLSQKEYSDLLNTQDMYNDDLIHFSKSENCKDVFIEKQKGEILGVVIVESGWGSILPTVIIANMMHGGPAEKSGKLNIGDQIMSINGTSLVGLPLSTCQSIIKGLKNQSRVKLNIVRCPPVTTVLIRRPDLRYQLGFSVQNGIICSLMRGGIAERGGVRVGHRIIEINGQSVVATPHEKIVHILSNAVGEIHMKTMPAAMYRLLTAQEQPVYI
T2 sequence (Q07820 whole entry): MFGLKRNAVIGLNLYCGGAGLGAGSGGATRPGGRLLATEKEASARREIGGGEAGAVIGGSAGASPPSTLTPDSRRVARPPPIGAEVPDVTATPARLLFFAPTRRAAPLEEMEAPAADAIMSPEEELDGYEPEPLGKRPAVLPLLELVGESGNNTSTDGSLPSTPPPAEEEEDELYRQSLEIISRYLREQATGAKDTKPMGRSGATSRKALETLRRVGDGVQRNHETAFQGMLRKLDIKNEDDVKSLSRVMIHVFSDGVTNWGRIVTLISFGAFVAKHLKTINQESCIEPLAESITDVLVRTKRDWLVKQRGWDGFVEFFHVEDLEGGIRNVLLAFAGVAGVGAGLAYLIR
Chain of Lytic switch protein BZLF1 (P03206 whole entry): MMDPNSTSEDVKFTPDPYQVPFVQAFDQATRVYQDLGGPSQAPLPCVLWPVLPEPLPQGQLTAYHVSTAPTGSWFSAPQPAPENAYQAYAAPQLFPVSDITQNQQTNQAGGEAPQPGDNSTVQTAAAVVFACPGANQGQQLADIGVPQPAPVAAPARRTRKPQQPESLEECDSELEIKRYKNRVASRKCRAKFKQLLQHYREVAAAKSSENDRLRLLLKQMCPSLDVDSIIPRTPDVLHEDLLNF
Chain of SUMO E1/E2 (Q9UBE0 whole entry): as the sequence (Q9UBE0 whole entry) above
Chain of SUMO E1/E2 (Q9UBT2 whole entry): as the sequence (Q9UBT2 whole entry) above
Chain of SUMO E1/E2 (P63279 whole entry): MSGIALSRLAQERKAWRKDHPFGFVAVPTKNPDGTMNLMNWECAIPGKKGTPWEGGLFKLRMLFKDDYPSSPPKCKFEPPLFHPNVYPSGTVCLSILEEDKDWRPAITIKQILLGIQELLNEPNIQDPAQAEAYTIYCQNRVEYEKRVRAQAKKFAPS

In the case of `CCn1nc(C)c(CN2CCCC(CO)(Cc3ccccc3)C2)c1C` (centres undefined), the IC50 (cells) is reported as 42.9 µM (active) and the CC50 [1] is reported as > 50 µM (active).
With `COc1ccccc1CNC(=O)COC(=O)c1cc(-c2ccco2)nc2ccccc12` the IC50 [2] was 22.7 µM (active), the IC50 [3] was 7.11 µM (active) and the IC50 [4] was 7.83 µM (active). For the same compound, the IC50 (SUMO E1/E2) was 5.8 µM (active), the IC50 [5] was 2.04 µM (active) and the IC50 (Bcl-2-like protein 10 [6]) was 10.7 µM (active). For the same compound, the IC50 (Protein Tat) was > 100 µM (active), the CC50 [7] was > 40 µM (active) and the IC50 (Genome polyprotein [8]) was > 49.8 µM (not active). The IC50 (SUMO-activating enzyme [9]) was 5.42 µM (active), the IC50 [10] was 5.79 µM (active) and the IC50 (SUMO-activating enzyme [11]) was 10.6 µM (active).
In the case of `COc1ccccc1C(=O)Nc1ccc(-c2nnn(CC(=O)NCc3ccco3)n2)cc1`, the IC50 [12] is reported as > 0.608 µM (active), the IC50 (SUMO-activating enzyme [9]) is reported as 27.2 µM (active) and the IC50 [13] is reported as > 111 µM (not active). For the same compound, the IC50 (SUMO-activating enzyme [11]) was 11.8 µM (active).
For `N#Cc1cc(NC(=O)c2ccc(Cl)cc2)ccc1Sc1ccccc1`, the EC50 (Streptococcus) was 98.8 µM (active) and the EC50 (Streptokinase A) was 3.25 µM (active).
For `CC(C)CC(Nc1ncnc2scc(-c3ccccc3)c12)C(=O)O` (centres undefined), the EC50 [14] was > 120 µM (not active).
With `O=C(O)C1C2CC=CC2c2cc(Oc3ccccc3)cc3c2N1CC1CC=CC31` (centres undefined) the EC50 (Bcl-2-like protein 10 [15]) was 4.13 µM (active).
For `O=C(O)CN1C(=O)/C(=C\c2cc([N+](=O)[O-])ccc2OCc2ccccc2Cl)SC1=S`, the AC50 (Caspase-6) was 12.9 µM (active), the IC50 (Bcl-2-like protein 1) was > 109 µM (not active) and the IC50 (Genome polyprotein [16]) was 31.1 µM (active). The IC50 [17] was > 109 µM (not active).
With `CCn1c(C)cc(/C=C2/SC(=S)N(CC(=O)O)C2=O)c1C` the IC50 (Prothrombin) was 32.9 µM (active), the IC50 [18] was > 100 µM (inactive) and the EC50 [19] was > 100 µM (active). The AC50 [20] was 0.776 µM (active), the IC50 (Aminopeptidase N) was 75.5 µM (active) and the IC50 [21] was 28.6 µM (active).
For `S=C(NC1CCCCC1)N1CCOCCOCCN(C(=S)NC2CCCCC2)CCOCC1`, the EC50 (Mucolipin-3) was 20.4 µM (not active) and the EC50 (Ion channel NompC) was > 29.9 µM (not active).
